Consider 4 molecules from patent US20070287727A1, “Anti-Nicotine Treatment” (priority 2006, published 2007).

The test system of data set [1] is superior cervical ganglia. The settings on record: cited from earlier work.
The next data set relates to heavy smokers. Put plainly: Treatment of heavy smokers using anticholinergic therapy. It is filed as in vivo, human. To be noted: heavy smokers unable to visit for a booster. From the text:
Some individuals were characterized as heavy smokers and smoked 20 or more cigarettes per day. […] All of these patients received normal supportive treatment by sedative drugs and counseling on coping with and adjusting to addiction.
Booster injections were offered to all patients.

The conditions of data set [2]: intramuscular or intravenous injection; cited from earlier work.
A further data set concerns monkeys. The settings on record: cited from earlier work.

For `CN1CCCC1c1cccnc1` (stereo not shown) [nicotine], the acetylcholinesterase entry in data set [1] (after withdrawal of nicotine) is on record as “about 117 % of controls”. Also, the acetylcholine increase result in data set [1] (chronic nicotine treatment) is listed as “about 35%”.

For the molecule `CN1[C@@H]2CC[C@H]1C[C@@H](OC(c1ccccc1)c1ccccc1)C2` [benztropine, 8-azabicyclo [3.2.1]octane, 3-(diphenylmethoxy)-, endo, methanesulfonate], the patient-reported well-being entry in the data set on heavy smokers (a few weeks after treatment) is recorded as “feeling well”. Moreover, the “relapse to smoke again” value with heavy smokers (given during the 5 days after the first injection) is on record as “no immediate or short term relapse”. Moreover, the onset of action entry in data set [2] is listed as “within minutes”.

With `CN1[C@@H]2C[C@@H](OC(=O)[C@H](CO)c3ccccc3)C[C@H]1[C@@H]1O[C@@H]12` [scopolamine], the “effect on smoking (puffing pattern)” value with monkeys is “decreased smoking”.

Regarding `C[C@H](N)Cc1ccccc1` [d-amphetamine], the “effect on smoking (puffing pattern)” value in the data set with monkeys was “decreased smoking”.
